Test results from patent publication US20240417684A1, “DIFFERENTIATION AND USE OF HUMAN MICROGLIA-LIKE CELLS FROM PLURIPOTENT STEM CELLS AND HEMATOPOIETIC PROGENITORS” (THE REGENTS OF THE UNIVERSITY OF CALIFORNIA, priority 2017, published 2024).
Entries after “also recorded” stand apart in the source; their conditions may differ.

Experiments:
iMGLs [1] = experiment: Mesoscale multiplex cytokine and chemokine assay of iMGL conditioned media; assay type: cell-based, human; conditions: for CCL2 secretion, mean ± SE / CCL3 secretion, mean ± SE / CCL4 secretion, mean ± SE / CCL17 secretion, mean ± SE / CXCL10 secretion, mean ± SE / IL1A secretion, mean ± SE / IL6 secretion, mean ± SE / IL8 secretion, mean ± SE / IL10 secretion, mean ± SE / TNFA secretion, mean ± SE: iMGLs stimulated 24 h, IFNγ 20 ng/ml, IL-1β 20 ng/ml or LPS 100 ng/ml; for TNFA secretion, mean ± SE: n=3 wells/group; for cytokines/chemokines secreted by iMGLs in response to the stimulus: of the 10 examined cytokines, 24 h
Description: iMGLs culture media was replaced with basal media for 2 hours prior to stimulation with IFNγ (20 ng/ml), IL1β (20 ng/ml), and LPS (100 ng/ml) for 24 hours, after which cells were collected for RNA and conditioned media assessed for cytokine secretion. To simultaneously assess multiple cytokine and chemokine analytes from iMGL conditioned media, conditioned media from each treatment group was processed and analyzed using the V-PLEX human cytokine 30-plex kit (Mesoscale) according to the manufacturer protocol.

P2ry12 [2] = biological target: T1, P2ry12 (Homo sapiens, UniProt Q9H244); experiment: ADP trans-well migration assay; assay type: cell-based; conditions: pre-exposure 50 μM, 1 hr; ADP 100 μM
T1 construct: iMGLs express the microglial-enriched purinergic receptor P2ry12; endogenous in cells; host or cells: iMGLs (human iPSC-derived microglia-like cells)
Description: Trans-well migration assays to ADP was performed as previously described (De Simone et al., 2010; Moore et al., 2015). iMGLs (5.5×10^4 cells/well) were cultured in serum-free basal media without cytokines for 1hour. Next, iMGLS were pre-exposed to DMSO or PSB0739 (50 μM, Tocris) for 1 hr at 37° C. in 5% CO2 cell culture incubator. Cells were then washed three times with basal medium and plated in trans-well migration chambers (5 μm polycarbonate inserts in 24 wells; Corning) containing […] (ADP, 100 μM; Sigma) in the bottom chamber in 37° C. in 5% CO2. After 4 hours, cells were washed three times and fixed in PFA (4%) for 15 minutes at room temperature. Cells were stained with Hoechst stain for 10 mins to visualize nuclei of cells. A blinded observer counted total cells per slide and then scrubbed cells off top surface, washed with PBS, and recounted to record migrated cells. Migration was reported as migrated over total cells per well. Fluorescent images of cells were captured using Olympus IX71 inverted microscope. […] […]

P2ry12 [3] = biological target: T1, P2ry12; experiment: ADP calcium imaging (Fura-2-AM, I340/I380); assay type: cell-based; conditions: 50 μM, 1 hour; ADP 10 μM
Description: For calcium imaging, iMGLs were plated on poly-L-lysine-coated coverslips and 1 hour later were incubated with Fura-2-AM (Molecular Probes) calcium dye diluted in Ringer solution containing (in mM): NaCl 140, KCl 4.5, CaCl2 2, MgCl2 1, HEPES 10, glucose 10, sucrose 5, pH=7.4. After a 1-hour incubation, the dye was washed out 3 times using Ringer solution and treated for 1 hour with either P2RY12 inhibitor PSB0739 (50 μM, Tocris) or Vehicle (DMSO) and used for experiments. Baseline Ca^2+ signal (I340/I380) were measured for more than 100 s and then ADP (10 μM) was introduced under stead flow after baseline measurement. Ca^2+ recordings were performed on Zeiss (Axiovert 35)-based imaging setup and data acquisition was conducted with Metafluor software (Molecular Devices). Data analysis was performed using Metafluor, Origin Pro, and Prism 6.0.

iMGLs [4] = experiment: RNA-seq differential gene expression of iMGLs with or without TGFβ; assay type: cell-based, human
Description: Cells were harvested and washed three times with DPBS and stored in RNAlater, RNA preservation solution. RNA was extracted from all cell types using RNeasy Mini Kit (Qiagen) following manufacturer's guidelines. RNA integrity (RIN) was measured for all samples using the Bioanalzyer Agilent 2100 series. All sequencing libraries analyzed were generated from RNA samples measuring a RIN score≥9. The Illumina TruSeq mRNA stranded protocol was used to obtain poly-A mRNA from all samples. 200 ng of isolated mRNA was used to construct RNA-seq libraries. Libraries were quantified and normalized using the Library Quantification Kit from Kapa Biosystems and sequenced as paired-end 100 bp reads on the Illumina HiSeq 2500 platform.
RNA-seq reads were mapped to the hg38 reference genome using STAR aligner and mapped to Gencode version 24 gene annotations using RSEM. Genes with expression (<1 FPKM) across all samples were filtered from all subsequent analysis. Differential gene expression analysis was performed on TMM normalized counts with EdgeR (Robinson et al., 2010). Multiple biological replicates were used for all comparative analysis. A p-value≤0.001 and a 2-fold change in expression were used in determining significant differentially expressed genes for respective comparisons. PCA analysis was performed using the R package rgl and plotted using plot3d. […]

T1 sequence (Q9H244 whole entry): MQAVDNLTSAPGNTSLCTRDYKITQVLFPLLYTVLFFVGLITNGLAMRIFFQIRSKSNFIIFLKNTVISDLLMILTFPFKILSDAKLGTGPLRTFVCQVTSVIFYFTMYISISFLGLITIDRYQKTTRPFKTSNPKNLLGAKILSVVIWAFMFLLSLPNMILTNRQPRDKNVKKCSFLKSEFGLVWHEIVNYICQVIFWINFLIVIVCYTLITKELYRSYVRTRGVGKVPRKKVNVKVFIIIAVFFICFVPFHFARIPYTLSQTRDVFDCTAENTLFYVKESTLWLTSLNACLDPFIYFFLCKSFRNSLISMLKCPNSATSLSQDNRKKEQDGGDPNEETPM

Row | effect on ADP-induced calcium flux in iMGLs (P2ry12 [3]) | Compound | CCL2 secretion, mean ± SE (iMGLs [1]) | CCL3 secretion, mean ± SE (iMGLs [1]) | CCL4 secretion, mean ± SE (iMGLs [1]) | CCL17 secretion, mean ± SE (iMGLs [1]) | CXCL10 secretion, mean ± SE (iMGLs [1]) | IL1A secretion, mean ± SE (iMGLs [1]) | IL6 secretion, mean ± SE (iMGLs [1]) | IL8 secretion, mean ± SE (iMGLs [1]) | IL10 secretion, mean ± SE (iMGLs [1]) | TNFA secretion, mean ± SE (iMGLs [1]) | cytokines/chemokines secreted by iMGLs in response to the stimulus (iMGLs [1]) | effect on ADP-induced iMGL migration (P2ry12 [2]) | genes differentially expressed in iMGLs after TGFβ removal (iMGLs [4]; TGFβ removal (24 hours)) [genes] | genes differentially expressed (increased) in iMGLs with TGFβ (iMGLs [4]; presence of TGFβ) [genes]
1 |  | Lipopolysaccharide [LPS] | 5,695.46 ± 275.72 | 0.00 ± 0.00 | 4,594.57 ± 33.96^ | 92.96 ± 7.70 | 73.72 ± 4.53 | 30.55 ± 2.19 | 274.39 ± 15.25 | 4,347.96 ± 75.61^ | 31.31 ± 1.52 | 116.49 ± 9.77 | induction of all measured cytokines except for CCL3 |  |  | 
2 | negated | Nc1c(S(=O)(=O)O)cc(Nc2ccc(Nc3ccccc3)c(S(=O)(=O)O)c2)c2c1C(=O)c1ccccc1C2=O [PSB0739] |  |  |  |  |  |  |  |  |  |  |  | negated; also recorded: completely abrogates ADP-induced iMGL migration |  | 
3 |  | IL-1β: cytokine used to stimulate iMGLs (20 ng/ml) | 275.98 ± 19.54 | 556.24 ± 54.01 | 4,492.26 ± 51.35^ | 21.75 ± 1.94 | 69.49 ± 4.73 | 4.89 ± 1.45 | 13.92 ± 0.41 | 3,004.54 ± 47.58^ | 4.42 ± 1.33 | 29.74 ± 0.65 | 8 |  |  | 
4 |  | IFNγ: cytokine used to stimulate iMGLs (20 ng/ml) | 993.26 ± 55.76 | 295.39 ± 19.72 | 4,514.72 ± 10.01^ | 25.82 ± 1.98 | 0.00 ± 0.00 | 1.48 ± 0.25 | 12.22 ± 1.44 | 3549.05 ± 181.22 | 4.59 ± 2.35 | 58.82 ± 8.80 | 8 |  |  | 
5 |  | TGFβ: glia-derived cytokine in iMGL differentiation media (50 ng/ml) |  |  |  |  |  |  |  |  |  |  |  |  | 1517 | 1262
